From ChEMBL document CHEMBL1138223, “Synthesis of low-hemolytic antimicrobial dehydropeptides based on gramicidin s” (2006) come the findings set out here.

≈ marks a conversion by molar mass, not a printed value. Calls of active or inactive are those of the source. The calls are words filed in the database; no cut-off is given here. Numbered stars: 1 amine (or outer) side, 2 acyl side, 3 side chain; on linkers, the order of the positions; unused ones are H or OH. Square brackets hold non-standard residues; d marks the D form. Peptide text beside a SMILES is read from it. X1 = O=C(/C(=C/c1cccnc1)N[*:1])[*:2]; X2 = O=C(/C(=C/c1ccccc1)N[*:1])[*:2]; Orn = NCCC[C@H](N)C(=O)O

The test system of one experiment is Escherichia coli. The experiment can be described thus: Antimicrobial activity against Escherichia coli K12 W3110 by liquid broth method. Format: functional.
The subject of the next experiment is Erythrocyte. The experiment is described as follows: Induction of human erythrocyte hemolysis. Format: functional, cell-based.
Another experiment deals with Staphylococcus aureus. The experiment can be described thus: Antimicrobial activity against Staphylococcus aureus 209P by liquid broth method. Format: functional.

In general, MIC refers to the lowest concentration that inhibits growth of the organism. Take `CC(C)C[C@@H]1NC(=O)[C@H](CCCN)NC(=O)[C@H](C(C)C)NC(=O)[C@@H]2CCCN2C(=O)[C@@H](Cc2cccnc2)NC(=O)[C@H](CC(C)C)NC(=O)[C@H](CCCN)NC(=O)[C@H](C(C)C)NC(=O)[C@@H]2CCCN2C(=O)[C@@H](Cc2cccnc2)NC1=O`: the minimum inhibitory concentration (MIC) against Escherichia coli and against Staphylococcus aureus was 64 µg/mL (≈ 56 µM) in each case. In addition, the result with Erythrocyte was inactive.
Turning to `CC(C)C[C@@H]1NC(=O)[C@H](CCCN)NC(=O)[C@H](C(C)C)NC(=O)[C@@H]2CCCN2C(=O)/C(=C/c2cccnc2)NC(=O)[C@H](CC(C)C)NC(=O)[C@H](CCCN)NC(=O)[C@H](C(C)C)NC(=O)[C@@H]2CCCN2C(=O)/C(=C/c2cccnc2)NC1=O` (cyclo(L[X1]PV[Orn]L[X1]PV[Orn])), the figures for the minimal inhibitory concentration (MIC) in the experiment with Escherichia coli and in the experiment with Staphylococcus aureus were 32 µg/mL (≈ 28.1 µM) and 8 µg/mL (≈ 7.02 µM), respectively.
With `CC(C)C[C@@H]1NC(=O)[C@H](CCCN)NC(=O)[C@H](C(C)C)NC(=O)[C@@H]2CCCN2C(=O)/C(=C/c2ccccc2)NC(=O)[C@H](CC(C)C)NC(=O)[C@H](CCCN)NC(=O)[C@H](C(C)C)NC(=O)[C@@H]2CCCN2C(=O)/C(=C/c2cccnc2)NC1=O` (cyclo(L[X2]PV[Orn]L[X1]PV[Orn])), the minimal inhibitory concentration (MIC) was determined as 32 µg/mL (≈ 28.1 µM) in the experiment on Escherichia coli and 4 µg/mL (≈ 3.51 µM) against Staphylococcus aureus.
Regarding `CC(C)C[C@@H]1NC(=O)[C@H](CCCN)NC(=O)[C@H](C(C)C)NC(=O)[C@@H]2CCCN2C(=O)/C(=C/c2ccccc2)NC(=O)[C@H](CC(C)C)NC(=O)[C@H](CCCN)NC(=O)[C@H](C(C)C)NC(=O)[C@@H]2CCCN2C(=O)/C(=C/c2ccccc2)NC1=O` (cyclo(L[X2]PV[Orn]L[X2]PV[Orn])), the MIC amounted to 32 µg/mL (≈ 28.1 µM) with Escherichia coli and 4 µg/mL (≈ 3.52 µM) in the experiment on Staphylococcus aureus.
In the same order, the values of `CC(C)C[C@@H]1NC(=O)[C@H](CCCN)NC(=O)[C@H](C(C)C)NC(=O)[C@@H]2CCCN2C(=O)[C@@H](Cc2ccc(O)cc2)NC(=O)[C@H](CC(C)C)NC(=O)[C@H](CCCN)NC(=O)[C@H](C(C)C)NC(=O)[C@@H]2CCCN2C(=O)[C@@H](Cc2ccc(O)cc2)NC1=O` (cyclo(L[dY]PV[Orn]L[dY]PV[Orn])) are 32 µg/mL (≈ 27.3 µM) and 4 µg/mL (≈ 3.41 µM).
Take `CC(C)C[C@@H]1NC(=O)[C@H](CCCN)NC(=O)[C@H](C(C)C)NC(=O)[C@@H]2CCCN2C(=O)[C@@H](Cc2ccccc2)NC(=O)[C@H](CC(C)C)NC(=O)[C@H](CCCN)NC(=O)[C@H](C(C)C)NC(=O)[C@@H]2CCCN2C(=O)[C@@H](Cc2ccccc2)NC1=O` [GRAMICIDIN S] (cyclo(L[dF]PV[Orn]L[dF]PV[Orn])): the results for the minimum inhibitory concentration (MIC) with Escherichia coli and against Staphylococcus aureus were 16 µg/mL (≈ 14 µM) and 4 µg/mL (≈ 3.5 µM), respectively.
